Counter-ions that a name gives are not always drawn. Like-named read-outs stand apart in the source and are kept apart here.
Key:
[1] = test system: Mycoplasma hyopneumoniae (Mh) ST-11; assay: In vitro sensitivity test (liquid dilution method); format: cell-based; conditions: 37°C, 7 days
[2] = test system: Mycoplasma gallisepticum (MG) T-7-T, TS-resistant strain isolated from the field; assay: In vitro sensitivity test (liquid dilution method); format: cell-based; conditions: 37°C, 7 days
[3] = test system: Mycoplasma gallisepticum (MG) S6; assay: In vitro sensitivity test (liquid dilution method); format: cell-based; conditions: 37°C, 7 days
[4] = test system: Mycoplasma synoviae (MS) F10-2as; assay: In vitro sensitivity test (liquid dilution method); format: cell-based; conditions: 37°C, 7 days
How it was run: (§1)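 Mycoplasma synoviae strains tested by liquid dilution in Frey medium with 12% pig serum and 0.01% βNAD, 37 °C for 7 days. P. piscicida grown on heart infusion agar with 1.5% NaCl, 25 °C for 40–48 h.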

[5] = test system: Mycoplasma synoviae (MS) 1853; assay: In vitro sensitivity test (liquid dilution method); format: cell-based; conditions: 37°C, 7 days
How it was run: as §1

[6] = test system: Escherichia coli (E.coli) JC-2; assay: In vitro sensitivity test (agar dilution method); format: cell-based; conditions: 37°C, 20 to 24 hours
[7] = test system: Hemophilus pleuropneumonia (H.pp) M-1; assay: In vitro sensitivity test (agar dilution method); format: cell-based; conditions: 37°C, 20 hours, 10 % CO₂
[8] = test system: Staphylococcus aureus (S.au) 209P; assay: In vitro sensitivity test (agar dilution method); format: cell-based; conditions: 37°C, 20 to 24 hours
How it was run: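 Bacteria were of animal origin. MS strains were grown by liquid dilution in Frey medium with 12 % pig-serum and 0.01 % βNAD at 37°C for 7 days. S.au was tested by agar dilution on Mueller Hinton agar, 37°C for 20 to 24 hours. P.pis was grown on 1.5 % NaCl heart infusion agar at 25°C for 40 to 48 hours.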

[9] = test system: Salmonella typhimurium (S.typhi) 13311; assay: In vitro sensitivity test (agar dilution method); format: cell-based; conditions: 37°C, 20 to 24 hours
[10] = test system: TS-resistant MG; assay: Experimental MG infection to chicken, through bait; format: in vivo; conditions: for Number of fowl having air sack lesions / Infectious index Left air sack + / Infectious index Left air sack ++ / Infectious index Left air sack +++ / Infectious index Left air sack - / Infectious index Right air sack + / Infectious index Right air sack ++ / Infectious index Right air sack +++ / Infectious index Right air sack -: 9-days chicken, 1.8 x 10³ CFU/fowl; for Infectious index Left air sack + / Infectious index Left air sack ++ / Infectious index Left air sack +++ / Infectious index Left air sack - / Infectious index Right air sack + / Infectious index Right air sack ++ / Infectious index Right air sack +++ / Infectious index Right air sack -: count of fowl
[11] = test system: TS-resistant strain of MG; format: in vivo, chicken; conditions: for Infectious index Left air sack + / Infectious index Left air sack ++ / Infectious index Left air sack +++ / Infectious index Left air sack - / Infectious index Right air sack + / Infectious index Right air sack ++ / Infectious index Right air sack +++ / Infectious index Right air sack -: count of fowl
[12] = oral 100 mg/kg, 9-days chicken, 1.7 x 10³ CFU/fowl
[13] = oral 100 mg/kg, 9-days chicken, 2.2 x 10³ CFU/fowl
[14] = oral 100 mg/kg, 10-days chicken, 1.2 x 10³ CFU/fowl
[15] = oral 100 mg/kg, 10-days chicken, 3.0 x 10³ CFU/fowl
[16] = oral 200 mg/kg, 9-days chicken, 1.7 x 10³ CFU/fowl
[17] = oral 200 mg/kg, 9-days chicken, 2.2 x 10³ CFU/fowl
[18] = oral 200 mg/kg, 10-days chicken, 1.2 x 10³ CFU/fowl
[19] = oral 200 mg/kg, 10-days chicken, 3.0 x 10³ CFU/fowl

Compound: Tylosin® [TSP, reference compound]
- In vitro Sensitivity Test Mh ST-11 [1]: 0.1 µg/mL
- In vitro Sensitivity Test MG T-7-T [2]: 6.25 µg/mL
- In vitro Sensitivity Test MG S6 [3]: 0.05 µg/mL
- In vitro Sensitivity Test MS F10-2as [4]: 0.1 µg/ml
- In vitro Sensitivity Test MS 1853 [5]: 0.1 µg/mL
- In vitro Sensitivity Test E.coli JC-2 [6]: 25.0 µg/mL
- In vitro Sensitivity Test H.pp M-1 [7]: 25.0 µg/mL
- In vitro Sensitivity Test S.au 209P [8]: 0.39 µg/mL
- In vitro Sensitivity Test S.typhi 13311 [9]: 0.39 µg/mL
- Number of fowl having air sack lesions ([10]; bait 1100 ppm/Day): 5
- Infectious index Left air sack + ([10]; bait 1100 ppm/Day): 1
- Infectious index Left air sack ++ ([10]; bait 1100 ppm/Day): 0
- Infectious index Left air sack +++ ([10]; bait 1100 ppm/Day): 0
- Infectious index Left air sack - ([10]; bait 1100 ppm/Day): 4
- Infectious index Right air sack + ([10]; bait 1100 ppm/Day): 3
- Infectious index Right air sack ++ ([10]; bait 1100 ppm/Day): 2
- Infectious index Right air sack +++ ([10]; bait 1100 ppm/Day): 0
- Infectious index Right air sack - ([10]; bait 1100 ppm/Day): 0
- inhibition of lesions in air sacs ([10]; through bait, 1100 ppm): could not inhibit lesions in air sacs

Compound: CN(C)[C@@H]1C(O)=C(C(N)=O)C(=O)[C@@]2(O)C(O)=C3C(=O)c4c(O)ccc(Cl)c4[C@@](C)(O)[C@H]3C[C@@H]12 [CTC, chlorotetracycline hydrochloride, reference compound]
- In vitro Sensitivity Test Mh ST-11 [1]: 1.56 µg/mL
- In vitro Sensitivity Test MG T-7-T [2]: 6.25 µg/mL
- In vitro Sensitivity Test MG S6 [3]: 12.5 µg/mL
- In vitro Sensitivity Test MS F10-2as [4]: 0.39 µg/ml
- In vitro Sensitivity Test MS 1853 [5]: 0.05 µg/mL
- In vitro Sensitivity Test E.coli JC-2 [6]: 0.39 µg/mL
- In vitro Sensitivity Test S.au 209P [8]: 0.1 µg/mL
- In vitro Sensitivity Test S.typhi 13311 [9]: 0.1 µg/mL
- Number of fowl having air sack lesions ([10]; bait 880 ppm/Day): 4
- Infectious index Left air sack + ([10]; bait 880 ppm/Day): 0
- Infectious index Left air sack ++ ([10]; bait 880 ppm/Day): 0
- Infectious index Left air sack +++ ([10]; bait 880 ppm/Day): 0
- Infectious index Left air sack - ([10]; bait 880 ppm/Day): 5
- Infectious index Right air sack + ([10]; bait 880 ppm/Day): 3
- Infectious index Right air sack ++ ([10]; bait 880 ppm/Day): 1
- Infectious index Right air sack +++ ([10]; bait 880 ppm/Day): 0
- Infectious index Right air sack - ([10]; bait 880 ppm/Day): 1

Compound: C[C@H]1c2cccc(O)c2C(=O)C2=C(O)[C@]3(O)C(=O)C(C(N)=O)=C(O)[C@@H](N(C)C)[C@@H]3[C@@H](O)[C@@H]21 [DOXY, doxycycline, reference compound]
- In vitro Sensitivity Test MG T-7-T [2]: 0.2 µg/mL
- In vitro Sensitivity Test MG S6 [3]: 0.2 µg/mL
- In vitro Sensitivity Test MS F10-2as [4]: 0.39 µg/ml
- In vitro Sensitivity Test MS 1853 [5]: 0.1 µg/mL
- Infectious index Left air sack + [11, 12]: 0
- Infectious index Left air sack ++ [11, 12]: 0
- Infectious index Left air sack +++ [11, 12]: 0
- Infectious index Left air sack - [11, 12]: 5
- Infectious index Right air sack + [11, 12]: 0
- Infectious index Right air sack ++ [11, 12]: 1
- Infectious index Right air sack +++ [11, 12]: 0
- Infectious index Right air sack - [11, 12]: 4
- Infectious index Left air sack + [11, 13]: 0
- Infectious index Left air sack ++ [11, 13]: 0
- Infectious index Left air sack +++ [11, 13]: 0
- Infectious index Left air sack - [11, 13]: 5
- Infectious index Right air sack + [11, 13]: 0
- Infectious index Right air sack ++ [11, 13]: 1
- Infectious index Right air sack +++ [11, 13]: 0
- Infectious index Right air sack - [11, 13]: 4
- Infectious index Left air sack + [11, 14]: 0
- Infectious index Left air sack ++ [11, 14]: 0
- Infectious index Left air sack +++ [11, 14]: 0
- Infectious index Left air sack - [11, 14]: 5
- Infectious index Right air sack + [11, 14]: 0
- Infectious index Right air sack ++ [11, 14]: 1
- Infectious index Right air sack +++ [11, 14]: 0
- Infectious index Right air sack - [11, 14]: 4
- Infectious index Left air sack + [11, 15]: 0
- Infectious index Left air sack ++ [11, 15]: 0
- Infectious index Left air sack +++ [11, 15]: 0
- Infectious index Left air sack - [11, 15]: 5
- Infectious index Right air sack + [11, 15]: 0
- Infectious index Right air sack ++ [11, 15]: 1
- Infectious index Right air sack +++ [11, 15]: 0
- Infectious index Right air sack - [11, 15]: 4
- Infectious index Left air sack + [11, 16]: 1
- Infectious index Left air sack ++ [11, 16]: 0
- Infectious index Left air sack +++ [11, 16]: 0
- Infectious index Left air sack - [11, 16]: 4
- Infectious index Right air sack + [11, 16]: 0
- Infectious index Right air sack ++ [11, 16]: 1
- Infectious index Right air sack +++ [11, 16]: 0
- Infectious index Right air sack - [11, 16]: 4
- Infectious index Left air sack + [11, 17]: 1
- Infectious index Left air sack ++ [11, 17]: 0
- Infectious index Left air sack +++ [11, 17]: 0
- Infectious index Left air sack - [11, 17]: 4
- Infectious index Right air sack + [11, 17]: 0
- Infectious index Right air sack ++ [11, 17]: 1
- Infectious index Right air sack +++ [11, 17]: 0
- Infectious index Right air sack - [11, 17]: 4
- Infectious index Left air sack + [11, 18]: 1
- Infectious index Left air sack ++ [11, 18]: 0
- Infectious index Left air sack +++ [11, 18]: 0
- Infectious index Left air sack - [11, 18]: 4
- Infectious index Right air sack + [11, 18]: 0
- Infectious index Right air sack ++ [11, 18]: 1
- Infectious index Right air sack +++ [11, 18]: 0
- Infectious index Right air sack - [11, 18]: 4
- Infectious index Left air sack + [11, 19]: 1
- Infectious index Left air sack ++ [11, 19]: 0
- Infectious index Left air sack +++ [11, 19]: 0
- Infectious index Left air sack - [11, 19]: 4
- Infectious index Right air sack + [11, 19]: 0
- Infectious index Right air sack ++ [11, 19]: 1
- Infectious index Right air sack +++ [11, 19]: 0
- Infectious index Right air sack - [11, 19]: 4
- Number of fowl having air sack lesions [11, 12]: 1
- Number of fowl having air sack lesions [11, 13]: 1
- Number of fowl having air sack lesions [11, 14]: 1
- Number of fowl having air sack lesions [11, 15]: 1
- Number of fowl having air sack lesions [11, 16]: 1
- Number of fowl having air sack lesions [11, 17]: 1
- Number of fowl having air sack lesions [11, 18]: 1
- Number of fowl having air sack lesions [11, 19]: 5
- In vitro Sensitivity Test E.coli JC-2 [6]: 0.39 µg/mL
- In vitro Sensitivity Test H.pp M-1 [7]: 0.39 µg/mL
- In vitro Sensitivity Test S.au 209P [8]: 0.1 µg/mL
- In vitro Sensitivity Test S.typhi 13311 [9]: 0.1 µg/mL

From patent EP0429304A2, “Pyridone-carboxylic acid derivatives and their use as veterinary medicines” (SHIONOGI SEIYAKU KABUSHIKI KAISHA trading under the name of …, priority 1989, dated 1991)
